Common to all, as to format: in vivo
The test system of data set [1] is mustard beetle larvae (Phaedon cochleariae). Put plainly: Phaedon cochleariae test (PHAECO spray application). As to conditions: application rate of 500 g/ha; Chinese cabbage leaf-disks; after 7 days. Here is the method: Solvent: 78.0 parts by weight of acetone and 1.5 parts by weight of dimethylformamide
Emulsifier: 0.5 parts by weight of alkylaryl polyglycolether
To produce a suitable preparation of active compound, 1 part by weight of active compound is mixed with the stated amount of solvent and emulsifier, and the concentrate is diluted with emulsifier-containing water to the desired concentration. Chinese cabbage (Brassica pekinesis) leaf-disks are sprayed with a preparation of the active ingredient of the desired concentration. Once dry, the leaf disks are infested with mustard beetle larvae (Phaedon cochleariae). After 7 days mortality in % is determined. 100% means that all beetle larvae have been killed and 0% means that none of the beetle larvae have been killed.

The next data set has as its system Ctenocephalides felis. Description: Ctenocephalides felis test (CTECFE), blood feeding. The settings on record: application rate of 100 ppm in cattle blood; adult unfed fleas; after 2 days. Here is the method:
(§1) Solvent: dimethyl sulfoxide
To produce a suitable preparation of active compound, 10 mg of active compound are dissolved in 0.5 ml solvent, and the concentrate is diluted with cattle blood to the desired concentration.
Approximately 10 to 15 adult unfed (Ctenocepahlides felis) are placed in flea chambers. The blood chamber, are sealed with paraffin on the bottom are filled with cattle blood supplied with compound solution and placed on top of the flea chamber, so that the fleas are able to suck the blood. The blood chamber is heated to 37° C. whereas the flea chamber is kept at room temperature. After 2 days mortality in % is determined. 100% means that all the fleas have been killed; 0% means that none of the fleas have been killed.

Data set [2] deals with tobacco cutworm (Spodoptera litura) larvae. Description: Test against tobacco cutworm (Spodoptera litura) larvae, leaf dip. The settings on record: active compound concentration of 100 ppm; third-instar larvae on sweet potato leaves; after 7 days. The method in brief: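 Sweet potato leaves dipped in compound diluted in water (DMF solvent, polyoxyethylene alkyl phenyl ether emulsifier), air-dried, and given to ten third-instar larvae per dish at 25 °C, with fresh leaves on days 2 and 4. Mortality (%) scored after 7 days, averaged over two dishes.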

In data set [3] the test system is two-spotted spider mite (Tetranychus urticae). Description: Test against two-spotted spider mite (Tetranychus urticae), spray. As to conditions: concentration of 100 ppm; adult mites on kidney beans; after 7 days. The protocol: Unless not mentioned otherwise, the test solutions were prepared as follows:
Containing as solvent: Dimethylformamide, 3 parts by weight; and as emulsifier: Polyoxyethylene alkyl phenyl ether, 1 part by weight
To prepare the test solution, 1 part by weight of an active compound is mixed with the above-mentioned amount of solvent containing the above-mentioned amount of emulsifier, and the mixture is diluted with water to the desired concentration.
50 to 100 adult two-spotted spider mites were inoculated onto the leaves of kidney beans at the two-true leaf stage, which plant had been cultivated in a pot having a diameter of 6 cm. After one day, test solution at the appropriate concentration was sprayed thereon in a sufficient amount using a spray gun. After the spraying, the plant pot was placed inside a greenhouse, and after 7 days, the acaricidal activity was calculated. An acaricidal activity of 100% means that all mites were killed, whereas an acaricidal activity of 0% means that no mite was killed.

For the next data set, the system named is Musca domestica. Description: Musca domestica test. The settings on record: application rate of 100 ppm; adults, sugar sponge; after 2 days. The protocol: as §1
To produce a suitable preparation of active compound, 10 mg of active compound are dissolved in 0.5 ml solvent, and the concentrate is diluted with water to the desired concentration. Prior to the assay, a piece or kitchen sponge is soaked with a mixture of sugar and compound solution and placed into a container. 10 adults (Musca domestica) are placed into the container and closed with a perforated lid. After 2 days mortality in % is determined. 100% means that all the flies have been killed; 0% means that none of the flies have been killed.

Data set [4] has as its system cucurbit leaf beetle (Aulacophora femoralis). Put plainly: Test against cucurbit leaf beetle (Aulacophora femoralis), leaf dip. The settings on record: active compound concentration of 100 ppm; second-instar larvae on cucumber leaves; after 7 days. The method in brief:
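Cucumber leaves dipped in compound solution (DMF solvent, polyoxyethylene alkyl phenyl ether emulsifier, water-diluted), air-dried, offered to five second-instar larvae on soil at 25° C. Mortality counted after 7 days, expressed as percent insecticidal activity.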

The next data set relates to Lucilia cuprina larvae. Put plainly: Lucilia cuprina test. As to conditions: application rate of 100 ppm; larvae on minced horse meat; after 2 days. The protocol: as §1
To produce a suitable preparation of active compound, 10 mg of active compound are dissolved in 0.5 ml solvent, and the concentrate is diluted with water to the desired concentration. Approximately 20-30 (Lucilia cuprina larvae) are transferred into a test tube containing 1 cm^3 of minced horse meat and 0.5 ml aqueous dilution of test compound. After 2 days mortality in % is determined. 100% means that all the larvae have been killed; 0% means that none of the larvae have been killed.

Another data set deals with Boophilus microplus. Put plainly: Boophilus microplus test (injection). The settings on record: application rate of 20 μg/animal; injection into adult engorged female ticks; after 7 days. The protocol:
as §1
To produce a suitable preparation of active compound, 10 mg of active compound are dissolved in 0.5 ml solvent, and the concentrate is diluted with solvent to the desired concentration. Five adult engorged female ticks (Boophilus microplus) are injected with compound solution into the abdomen. Ticks are transferred into replica plates and incubated in a climate chamber for a period of time. Egg deposition of fertile eggs is monitored. After 7 days mortality in % is determined. 100% means that all eggs are infertile; 0% means that all eggs are fertile.

Each structure is given as a SMILES string.

For `Cc1cc(C(n2nc(C)c(Br)c2C)C(F)(F)F)cc(C)c1NC(=O)c1cccc([N+](=O)[O-])c1` (racemic) [11-143], the “activity (mortality in %)” value in data set [1] is listed as 100%.
As for `CCOC(c1cc(I)c(NC(=O)c2cccc(NC(=O)c3cccc(F)c3)c2)c(I)c1)(C(F)(F)F)C(F)(F)F` [1-27], the entries for the “activity (mortality in %)” value in the data set on Ctenocephalides felis and in the data set on Musca domestica were 90% and 80%, respectively. The insecticidal activity in data set [2] and in data set [4] was 100% each time. This compound had an acaricidal activity rate in data set [3] of 100%.
As for `CCOC(c1cc(I)c(NC(=O)c2cccc(NC(=O)c3cccnc3Cl)c2)c(I)c1)(C(F)(F)F)C(F)(F)F` [1-40], the “activity (mortality in %)” value in the data set on Ctenocephalides felis turned out to be 90%; in the data set on Musca domestica, 100%. Further, the insecticidal activity in data set [2] and in data set [4] was 100% each time. For the same compound, the acaricidal activity rate in data set [3] is given as 100%.
As for `CCOC(c1cc(I)c(NC(=O)c2cccc(NC(=O)c3ccc(Cl)nc3)c2)c(I)c1)(C(F)(F)F)C(F)(F)F` [1-60], the “activity (mortality in %)” value in the data set with Ctenocephalides felis and in the data set on Musca domestica was 100% in each case. Moreover, the insecticidal activity in data set [2] and in data set [4] was 100% each time. Moreover, in data set [3], the acaricidal activity rate was 100%.
For `Cc1cc(C(n2cc(C(F)(F)F)cn2)C(F)(F)C(F)(F)F)cc(C)c1NC(=O)c1cccc(NC(=O)c2cccnc2Cl)c1` (centres unmarked) [2-104], the “activity (mortality in %)” value with Ctenocephalides felis is reported as 100%; in the data set on Lucilia cuprina larvae, 90%; in the data set on Musca domestica, 80%. Also, the insecticidal activity in data set [2] and in data set [4] was 100% throughout.
In turn, `Cc1cc(C(n2cc(Cl)c(C(F)(F)C(F)(F)F)n2)(C(F)(F)F)C(F)(F)F)cc(C)c1NC(=O)c1cccc(NC(=O)c2cccnc2Cl)c1` [2-120] displayed an insecticidal activity in data set [2] of 100%. Also, the “activity (mortality in %)” value in the data set on Lucilia cuprina larvae is 90%.
`Cc1cc(C(n2nc(C(F)(F)F)cc2C(F)(F)F)(C(F)(F)F)C(F)(F)F)cc(C)c1NC(=O)c1cccc(NC(=O)c2ccccc2F)c1` [2-124] showed an insecticidal activity in data set [2] of 100%. Further, the “activity (mortality in %)” value with Lucilia cuprina larvae came out at 90%.
Turning to `CCc1cc(C(n2cc(C(F)(F)F)cn2)(C(F)(F)F)C(F)(F)F)cc(C)c1NC(=O)c1cccc(N)c1` [11-114], the “activity (mortality in %; 100% means all eggs are infertile)” value in the data set on Boophilus microplus was 80%.

Source of the values: patent publication US20110201603A1, “Novel Acylaminobenzamide Derivatives” (Bayer CropScience AG, priority 2008, published 2011).
